Results published in patent publication US20040254100A1, “Use of thiostrepton as an anti-mycobacterial agent” (priority 2000, published 2004).

System: M. tuberculosis H37Ra in murine alveolar macrophage-like cell line MH-S
Assay: microbe, parasite or virus in culture
Type: cell-based
Settings: Mycobacterium tuberculosis, 24 h

Work on `C=C(NC(=O)C(=C)NC(=O)c1csc(C2=N[C@@H]3c4csc(n4)[C@H]4NC(=O)c5csc(n5)[C@H]([C@](C)(O)[C@@H](C)O)NC(=O)[C@H]5CSC(=N5)/C(=C/C)NC(=O)[C@H]([C@@H](C)O)NC(=O)c5csc(n5)[C@]3(CC2)NC(=O)[C@H](C)NC(=O)C(=C)NC(=O)[C@H](C)NC(=O)[C@H]([C@@H](C)CC)N[C@@H]2C=Cc3c([C@H](C)O)cc(nc3[C@H]2O)C(=O)O[C@@H]4C)n1)C(N)=O` [thiostrepton, Thiostrepton] yielded an IC50 of 30 nM.
